# Results as given in PMC8037182, “Solvothermal Synthesis of Multiple Dihydropyrimidinones at a Time as Inhibitors of Eg5” (Molecules, 2021).
# Key:
# Caco-2 cell line = experiment: Cytotoxicity MTS assay, Caco-2 cell line; format: cell-based; conditions: for OD490 Mean / OD490 Well 1 / OD490 Well 2 / OD490 Well 3: Caco-2 cell line
# Outline: (§1)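 Cells were seeded at 1000 per well, allowed 24 h, then exposed to compounds at final concentrations of 0.5 to 100 µM for 24 h, with 0.025% DMSO as blank. MTS reagent was added for 2 h at 37 °C and absorbance read at 490 nm. IC50 came from non-linear regression of viability against concentration.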
# T24 cell line = experiment: Cytotoxicity MTS assay, T24 cell line; format: cell-based; conditions: for OD490 Mean / OD490 Well 1 / OD490 Well 2 / OD490 Well 3: T24 cell line, first assay;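 as to OD490 Mean: blank control wells received 0.025% DMSO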;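 as to OD490 Well 1: blank control wells received 0.025% DMSO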;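 as to OD490 Well 2: blank control wells received 0.025% DMSO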;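 as to OD490 Well 3: blank control wells received 0.025% DMSO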
# Outline: as §1
structure (smiles),measurement,setting,value
CCOC(=O)c1[nH]c(C2NC(=S)NC(C)=C2C(=O)OC)c(C(=O)OCC)c1C (centres unmarked) [D12],OD490 Mean,"Caco-2 cell line; 0.5μM, first assay",0.5030
same,OD490 Well 1,"Caco-2 cell line; 0.5μM, first assay",0.4995
same,OD490 Well 2,"Caco-2 cell line; 0.5μM, first assay",0.5121
same,OD490 Well 3,"Caco-2 cell line; 0.5μM, first assay",0.4973
same,OD490 Mean,"Caco-2 cell line; 0.5μM, second assay",0.6834
same,OD490 Well 1,"Caco-2 cell line; 0.5μM, second assay",0.5732
same,OD490 Well 2,"Caco-2 cell line; 0.5μM, second assay",0.7838
same,OD490 Well 3,"Caco-2 cell line; 0.5μM, second assay",0.6933
same,OD490 Mean,"Caco-2 cell line; 0.5μM, third assay",0.6157
same,OD490 Well 1,"Caco-2 cell line; 0.5μM, third assay",0.6017
same,OD490 Well 2,"Caco-2 cell line; 0.5μM, third assay",0.6354
same,OD490 Well 3,"Caco-2 cell line; 0.5μM, third assay",0.6100
same,OD490 Mean,"Caco-2 cell line; 1μM, first assay",0.4963
same,OD490 Well 1,"Caco-2 cell line; 1μM, first assay",0.4703
same,OD490 Well 2,"Caco-2 cell line; 1μM, first assay",0.5352
same,OD490 Well 3,"Caco-2 cell line; 1μM, first assay",0.4835
same,OD490 Mean,"Caco-2 cell line; 1μM, second assay",0.6457
same,OD490 Well 1,"Caco-2 cell line; 1μM, second assay",0.5559
same,OD490 Well 2,"Caco-2 cell line; 1μM, second assay",0.7221
same,OD490 Well 3,"Caco-2 cell line; 1μM, second assay",0.6591
same,OD490 Mean,"Caco-2 cell line; 1μM, third assay",0.6229
same,OD490 Well 1,"Caco-2 cell line; 1μM, third assay",0.6178
same,OD490 Well 2,"Caco-2 cell line; 1μM, third assay",0.6489
same,OD490 Well 3,"Caco-2 cell line; 1μM, third assay",0.6021
same,OD490 Mean,"Caco-2 cell line; 10μM, first assay",0.5326
same,OD490 Well 1,"Caco-2 cell line; 10μM, first assay",0.5238
same,OD490 Well 2,"Caco-2 cell line; 10μM, first assay",0.5488
same,OD490 Well 3,"Caco-2 cell line; 10μM, first assay",0.5251
same,OD490 Mean,"Caco-2 cell line; 10μM, second assay",0.6099
same,OD490 Well 1,"Caco-2 cell line; 10μM, second assay",0.585
same,OD490 Well 2,"Caco-2 cell line; 10μM, second assay",0.6539
same,OD490 Well 3,"Caco-2 cell line; 10μM, second assay",0.5909
same,OD490 Mean,"Caco-2 cell line; 10μM, third assay",0.6194
same,OD490 Well 1,"Caco-2 cell line; 10μM, third assay",0.6123
same,OD490 Well 2,"Caco-2 cell line; 10μM, third assay",0.6244
same,OD490 Well 3,"Caco-2 cell line; 10μM, third assay",0.6214
same,OD490 Mean,"Caco-2 cell line; 25μM, first assay",0.5279
same,OD490 Well 1,"Caco-2 cell line; 25μM, first assay",0.5868
same,OD490 Well 2,"Caco-2 cell line; 25μM, first assay",0.5324
same,OD490 Well 3,"Caco-2 cell line; 25μM, first assay",0.4646
same,OD490 Mean,"Caco-2 cell line; 25μM, second assay",0.5376
same,OD490 Well 1,"Caco-2 cell line; 25μM, second assay",0.5247
same,OD490 Well 2,"Caco-2 cell line; 25μM, second assay",0.5145
same,OD490 Well 3,"Caco-2 cell line; 25μM, second assay",0.5736
same,OD490 Mean,"Caco-2 cell line; 25μM, third assay",0.5839
same,OD490 Well 1,"Caco-2 cell line; 25μM, third assay",0.5863
same,OD490 Well 2,"Caco-2 cell line; 25μM, third assay",0.5944
same,OD490 Well 3,"Caco-2 cell line; 25μM, third assay",0.5711
same,OD490 Mean,"Caco-2 cell line; 50μM, first assay",0.5705
same,OD490 Well 1,"Caco-2 cell line; 50μM, first assay",0.5776
same,OD490 Well 2,"Caco-2 cell line; 50μM, first assay",0.5840
same,OD490 Well 3,"Caco-2 cell line; 50μM, first assay",0.5499
same,OD490 Mean,"Caco-2 cell line; 50μM, second assay",0.6141
same,OD490 Well 1,"Caco-2 cell line; 50μM, second assay",0.6452
same,OD490 Well 2,"Caco-2 cell line; 50μM, second assay",0.6668
same,OD490 Well 3,"Caco-2 cell line; 50μM, second assay",0.5302
same,OD490 Mean,"Caco-2 cell line; 50μM, third assay",0.5882
same,OD490 Well 1,"Caco-2 cell line; 50μM, third assay",0.5933
same,OD490 Well 2,"Caco-2 cell line; 50μM, third assay",0.5725
same,OD490 Well 3,"Caco-2 cell line; 50μM, third assay",0.5988
same,OD490 Mean,"Caco-2 cell line; 100μM, first assay",0.4236
same,OD490 Well 1,"Caco-2 cell line; 100μM, first assay",0.4210
same,OD490 Well 2,"Caco-2 cell line; 100μM, first assay",0.4345
same,OD490 Well 3,"Caco-2 cell line; 100μM, first assay",0.4153
same,OD490 Mean,"Caco-2 cell line; 100μM, second assay",0.5967
same,OD490 Well 1,"Caco-2 cell line; 100μM, second assay",0.5668
same,OD490 Well 2,"Caco-2 cell line; 100μM, second assay",0.6735
same,OD490 Well 3,"Caco-2 cell line; 100μM, second assay",0.5498
same,OD490 Mean,"Caco-2 cell line; 100μM, third assay",0.4730
same,OD490 Well 1,"Caco-2 cell line; 100μM, third assay",0.4925
same,OD490 Well 2,"Caco-2 cell line; 100μM, third assay",0.4687
same,OD490 Well 3,"Caco-2 cell line; 100μM, third assay",0.4578
same,IC50,"Caco-2 cell line; MTS assay, 24 h exposure",148 µM
same,IC50,"T24 cell line; MTS assay, 24 h exposure",> 150 µM
same,OD490 Mean,T24 cell line; 0.5μM,1.1142
same,OD490 Well 1,T24 cell line; 0.5μM,1.0855
same,OD490 Well 2,T24 cell line; 0.5μM,0.8354
same,OD490 Well 3,T24 cell line; 0.5μM,1.4216
same,OD490 Mean,T24 cell line; 1μM,1.1490
same,OD490 Well 1,T24 cell line; 1μM,1.1324
same,OD490 Well 2,T24 cell line; 1μM,1.1847
same,OD490 Well 3,T24 cell line; 1μM,1.1298
same,OD490 Mean,T24 cell line; 10μM,1.2900
same,OD490 Well 1,T24 cell line; 10μM,1.3295
same,OD490 Well 2,T24 cell line; 10μM,1.2196
same,OD490 Well 3,T24 cell line; 10μM,1.3210
same,OD490 Mean,T24 cell line; 25μM,1.3787
same,OD490 Well 1,T24 cell line; 25μM,1.3758
same,OD490 Well 2,T24 cell line; 25μM,1.4030
same,OD490 Well 3,T24 cell line; 25μM,1.3572
same,OD490 Mean,T24 cell line; 50μM,1.3058
same,OD490 Well 1,T24 cell line; 50μM,1.3832
same,OD490 Well 2,T24 cell line; 50μM,1.3204
same,OD490 Well 3,T24 cell line; 50μM,1.2137
same,OD490 Mean,T24 cell line; 100μM,1.2394
same,OD490 Well 1,T24 cell line; 100μM,1.3664
same,OD490 Well 2,T24 cell line; 100μM,1.1849
same,OD490 Well 3,T24 cell line; 100μM,1.1670
